Test results taken from patent US8937089B2, “Synergistic mixtures of anthranilamide invertebrate pest control agents” (priority 2004, dated 2015).

Assays:
Assay in all cases: whole plant or invertebrate
Type in all cases: in vivo
[1] = system: potato leafhopper (Empoasca fabae Harris); details: alone
How it was run: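 Bean plants (5–6 days old, one primary leaf excised) were sprayed with 1 mL of compound in 10% acetone/water with 300 ppm X-77 surfactant, 3 replicates. After drying for 1 h, each unit was infested with 5 adult leafhoppers. Units were held 6 days at 19–21 °C and 50–70% RH.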

[2] = system: corn planthopper (Peregrines maidis); details: Corn Plant Hopper; for mortality at 10 ppm / mortality at 100 ppm / mortality at 1000 ppm: read-out: % mortality (obs); for mortality at 100 ppm: rate 100 ppm
How it was run: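 Compounds in 10% acetone/90% water with 300 ppm X-77 surfactant sprayed (3 replications) onto 3- to 4-day-old corn plants, dried 1 h, then infested with 10–20 corn planthopper nymphs aged 18–20 days. Held 6 days at 19-21° C. and 50-70% relative humidity; contact and/or systemic control assessed.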

[3] = system: diamondback moth (Plutella xylostella)
Protocol: The test compounds were dissolved in water. […] Serial dilutions were made to obtain the appropriate concentrations. To obtain the desired mixture concentrations of each compound, twice the desired concentration of each of the two mixture partner compounds were mixed together in equal volumes.
The diluted solutions of the test compounds were sprayed to run-off on three-week-old tomato plants. The plants were placed on a rotating turntable sprayer (10 rpm). Test solutions were applied using a flat fan air-assisted nozzle (Spraying Systems 122440) at 10 psi (69 kPa). […] The leaves were cut into pieces, which were placed singly into 5.5 cm-by-3.5 cm cells of a sixteen-cell plastic tray. Each cell contained a 2.5-cm square of moistened chromatography paper to prevent desiccation. One insect was placed in each cell. There two trays per treatment. Trays were held in the growth chamber at 25° C., 16-hour light:8-hour dark, 60% relative humidity for 4 days.
For evaluating control of diamondback moth (Plutella xylostella), cabbage (var. Stonehead) plants were grown in Metromix potting soil in 10-cm pots in aluminum trays to test size (28 days, 3-4 full leaves) the plants were sprayed to the point of runoff using the turntable sprayer as described in Test I. Test compounds were formulated and sprayed on test plants as described for Test I. After drying for 2 hours, the treated leaves were excised and infested with one cabbage looper per cell and covered. The test units were placed on trays and put in a growth chamber at 25° C. and 60% relative humidity for 4 days.

[4] = system: cotton melon aphid (Aphis gossypii Glover)
How it was run: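 Cotton plants (6–7 days old) pre-infested with 30–40 aphids by cut-leaf method, sprayed with compound (ppm) in 10% acetone/90% water with 300 ppm X-77 surfactant, three replicates. Held 6 days at 19–21 °C, 50–70% RH; contact and/or systemic control assessed.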

[5] = system: green peach aphid (Myzus persicae Sulzer); details: Green Peach Aphid; for mortality at 10 ppm / mortality at 100 ppm / mortality at 1000 ppm: Myzus persicae, in Raphanus sativus, read-out: % mortality (obs); for mortality at 100 ppm: rate 100 ppm
How it was run: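 Compounds formulated in 10% acetone/water with 300 ppm X-77 surfactant were atomized onto aphid-infested radish seedlings, with three replicates per treatment. Infestation was 30–40 aphids transferred on excised leaf pieces, covering contact and systemic exposure. Test units stayed 6 days in a growth chamber at 19–21 °C and 50–70% relative humidity.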

[6] = system: silverleaf whitefly (Bemisia argentifolii Bellows and Perring); details: Table 2B
How it was run: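 Whitefly-egg-infested 12–14-day-old cotton plants sprayed with compound in 10% acetone/90% water plus 300 ppm non-ionic surfactant, in triplicate. Plants then held 13 days at 28 °C and 50–70% relative humidity before mortality assessment.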

[7] = system: western flower thrip (Frankliniella occidentalis Pergande); details: single compound, spray, 7 days
How it was run: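 Compounds in 10% acetone/90% water with 300 ppm non-ionic surfactant were sprayed onto 5- to 7-day-old bean plants, 3 replicates. After 1 h drying, 22–27 adult thrips were added per unit. Units were held 7 days at 25° C, 45–55% RH, assessing contact and/or systemic control.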

[8] = Frankliniella occidentalis, 168 h, rate 10 ppm, read-out: % mortality (obs)
[9] = Frankliniella occidentalis, 168 h, rate 100 ppm, read-out: % mortality (obs)

Molecule: Pyridaben
- % mortality (obs) ([1]; rate 1 ppm): 0%
- % mortality (obs) ([1]; rate 2.5 ppm): 13%
- % mortality (obs) ([1]; rate 10 ppm): 100%
- % mortality (obs) ([2]; rate 2 ppm): 10%
- % mortality (obs) ([2]; rate 2.5 ppm): 2%
- % mortality (obs) ([2]; rate 3 ppm): 2%
- % mortality (obs) ([3]; rate 100 ppm): 100%
- % mortality (obs) ([3]; rate 150 ppm): 80%
- % mortality (obs) ([3]; rate 200 ppm): 100%
- % mortality (obs) ([4]; rate 1 ppm): 11%
- % mortality (obs) ([4]; rate 2 ppm): 15%
- % mortality (obs) ([4]; rate 10 ppm): 71%
- % mortality (obs) ([5]; rate 1 ppm): 100%
- % mortality (obs) ([5]; rate 10 ppm): 14%
- % mortality (obs) ([5]; rate 60 ppm): 60%
- % mortality (obs) ([6]; rate 20 ppm): 21%
- % mortality (obs) ([6]; rate 30 ppm): 55%
- % mortality (obs) ([6]; rate 50 ppm): 73%
- % mortality (obs) ([7]; rate 10 ppm): 30%
- % mortality (obs) ([7]; rate 80 ppm): 50%
- % mortality (obs) ([7]; rate 200 ppm): 60%

Molecule: COc1cccc(C(=O)NN(C(=O)c2cc(C)cc(C)c2)C(C)(C)C)c1C [Methoxyfenozide]
- mortality at 0.08 ppm ([1]; Empoasca fabae, rate 0.08 ppm, read-out: % mortality (obs)): 13%
- mortality at 0.4 ppm ([1]; Empoasca fabae, rate 0.4 ppm, read-out: % mortality (obs)): 13%
- mortality at 2 ppm ([1]; Empoasca fabae, rate 2 ppm, read-out: % mortality (obs)): 20%
- mortality at 10 ppm ([2]; rate 10 ppm): 7%
- mortality at 100 ppm [2]: 2%
- mortality at 1000 ppm ([2]; rate 1000 ppm): 10%
- mortality at 5 ppm ([4]; Aphis gossypii, rate 5 ppm, read-out: % mortality (obs)): 32%
- mortality at 50 ppm ([4]; Aphis gossypii, rate 50 ppm, read-out: % mortality (obs)): 54%
- mortality at 500 ppm ([4]; Aphis gossypii, rate 500 ppm, read-out: % mortality (obs)): 38%
- mortality at 10 ppm ([5]; rate 10 ppm): 7%
- mortality at 100 ppm [5]: 17%
- mortality at 1000 ppm ([5]; rate 1000 ppm): 6%
- mortality at 2 ppm ([6]; Bemisia argentifolii, in Gossypium hirsutum, rate 2 ppm, read-out: % mortality (obs)): 1%
- mortality at 10 ppm ([6]; Bemisia argentifolii, in Gossypium hirsutum, rate 10 ppm, read-out: % mortality (obs)): 2%
- mortality at 50 ppm ([6]; Bemisia argentifolii, in Gossypium hirsutum, rate 50 ppm, read-out: % mortality (obs)): 1%
- mortality at 10 ppm [7, 8]: 60%
- mortality at 100 ppm [7, 9]: 60%
- mortality at 500 ppm ([7]; Frankliniella occidentalis, 168 h, rate 500 ppm, read-out: % mortality (obs)): 60%

Molecule: Fipronil
- % mortality (obs) ([1]; rate 0.5 ppm): 7%
- % mortality (obs) ([1]; rate 1 ppm): 20%
- % mortality (obs) ([1]; rate 1.5 ppm): 27%
- % mortality (obs) ([2]; rate 0.5 ppm): 5%
- % mortality (obs) ([2]; rate 1 ppm): 41%
- % mortality (obs) ([2]; rate 1.5 ppm): 15%
- % mortality (obs) ([4]; rate 2 ppm): 27%
- % mortality (obs) ([4]; rate 4 ppm): 44%
- % mortality (obs) ([4]; rate 8 ppm): 85%
- % mortality (obs) ([5]; rate 2 ppm): 17%
- % mortality (obs) ([5]; rate 4 ppm): 31%
- % mortality (obs) ([5]; rate 8 ppm): 50%
- % mortality (obs) ([6]; rate 50 ppm): 1%
- % mortality (obs) ([6]; rate 100 ppm): 0%
- % mortality (obs) ([6]; rate 1000 ppm): 13%
- % mortality (obs) ([7]; rate 0.5 ppm): 100%
- % mortality (obs) ([7]; rate 2 ppm): 100%
- % mortality (obs) ([7]; rate 10 ppm): 100%

Molecule: Acetamiprid
- % mortality (obs) ([1]; rate 1 ppm): 27%
- % mortality (obs) ([1]; rate 4 ppm): 60%
- % mortality (obs) ([1]; rate 12 ppm): 87%
- % mortality (obs) ([2]; rate 0.3 ppm): 43%
- % mortality (obs) ([2]; rate 0.4 ppm): 85%
- % mortality (obs) ([2]; rate 0.5 ppm): 100%
- % mortality (obs) ([4]; rate 0.02 ppm): 42%
- % mortality (obs) ([4]; rate 0.08 ppm): 67%
- % mortality (obs) ([4]; rate 0.4 ppm): 100%
- % mortality (obs) ([5]; rate 0.2 ppm): 27%
- % mortality (obs) ([5]; rate 0.4 ppm): 52%
- % mortality (obs) ([5]; rate 0.6 ppm): 46%
- % mortality (obs) ([6]; rate 1 ppm): 3%
- % mortality (obs) ([6]; rate 5 ppm): 45%
- % mortality (obs) ([6]; rate 20 ppm): 83%
- % mortality (obs) ([7]; rate 1 ppm): 70%
- % mortality (obs) ([7]; rate 100 ppm): 90%
- % mortality (obs) ([7]; rate 3000 ppm): 100%

Molecule: Novaluron
- % mortality (obs) ([1]; rate 250 ppm): 7%
- % mortality (obs) ([1]; rate 500 ppm): 7%
- % mortality (obs) ([1]; rate 1000 ppm): 0%
- % mortality (obs) ([2]; rate 250 ppm): 7%
- % mortality (obs) ([2]; rate 500 ppm): 5%
- % mortality (obs) ([2]; rate 1000 ppm): 100%
- % mortality (obs) ([4]; rate 50 ppm): 28%
- % mortality (obs) ([4]; rate 250 ppm): 30%
- % mortality (obs) ([4]; rate 1000 ppm): 29%
- % mortality (obs) ([5]; rate 250 ppm): 14%
- % mortality (obs) ([5]; rate 500 ppm): 24%
- % mortality (obs) ([5]; rate 1000 ppm): 25%
- % mortality (obs) ([6]; rate 2 ppm): 2%
- % mortality (obs) ([6]; rate 10 ppm): 0%
- % mortality (obs) ([6]; rate 250 ppm): 28%
- % mortality (obs) ([7]; rate 1 ppm): 50%
- % mortality (obs) ([7]; rate 100 ppm): 50%
- % mortality (obs) ([7]; rate 1000 ppm): 80%

Molecule: CC(C)N1C(=O)N(c2ccccc2)CS/C1=N\C(C)(C)C [Buprofezin]
- mortality at 10 ppm ([1]; Empoasca fabae, rate 10 ppm, read-out: % mortality (obs)): 20%
- mortality at 100 ppm ([1]; Empoasca fabae, rate 100 ppm, read-out: % mortality (obs)): 20%
- mortality at 1000 ppm ([1]; Empoasca fabae, rate 1000 ppm, read-out: % mortality (obs)): 0%
- mortality at 10 ppm ([2]; rate 10 ppm): 96%
- mortality at 100 ppm [2]: 97%
- mortality at 1000 ppm ([2]; rate 1000 ppm): 98%
- mortality at 10 ppm ([4]; Aphis gossypii, rate 10 ppm, read-out: % mortality (obs)): 34%
- mortality at 100 ppm ([4]; Aphis gossypii, rate 100 ppm, read-out: % mortality (obs)): 30%
- mortality at 1000 ppm ([4]; Aphis gossypii, rate 1000 ppm, read-out: % mortality (obs)): 36%
- mortality at 10 ppm ([5]; rate 10 ppm): 63%
- mortality at 100 ppm [5]: 63%
- mortality at 1000 ppm ([5]; rate 1000 ppm): 54%
- mortality at 300 ppm ([6]; Bemisia argentifolii, in Gossypium hirsutum, rate 300 ppm, read-out: % mortality (obs)): 75%
- mortality at 500 ppm ([6]; Bemisia argentifolii, in Gossypium hirsutum, rate 500 ppm, read-out: % mortality (obs)): 65%
- mortality at 1000 ppm ([6]; Bemisia argentifolii, in Gossypium hirsutum, rate 1000 ppm, read-out: % mortality (obs)): 96%
- mortality at 10 ppm [7, 8]: 20%
- mortality at 100 ppm [7, 9]: 20%
- mortality at 1000 ppm ([7]; Frankliniella occidentalis, 168 h, rate 1000 ppm, read-out: % mortality (obs)): 30%

Molecule: Pymetrozine
- % mortality (obs) ([1]; rate 2 ppm): 0%
- % mortality (obs) ([1]; rate 15 ppm): 13%
- % mortality (obs) ([1]; rate 200 ppm): 60%
- % mortality (obs) ([2]; rate 2 ppm): 51%
- % mortality (obs) ([2]; rate 10 ppm): 29%
- % mortality (obs) ([2]; rate 30 ppm): 89%
- % mortality (obs) ([4]; rate 0.1 ppm): 22%
- % mortality (obs) ([4]; rate 0.5 ppm): 38%
- % mortality (obs) ([4]; rate 2 ppm): 62%
- % mortality (obs) ([5]; rate 0.1 ppm): 13%
- % mortality (obs) ([5]; rate 0.5 ppm): 41%
- % mortality (obs) ([5]; rate 2 ppm): 79%
- % mortality (obs) ([6]; rate 10 ppm): 3%
- % mortality (obs) ([6]; rate 100 ppm): 7%
- % mortality (obs) ([6]; rate 1000 ppm): 52%
- % mortality (obs) ([7]; rate 10 ppm): 100%
- % mortality (obs) ([7]; rate 100 ppm): 100%
- % mortality (obs) ([7]; rate 1000 ppm): 100%
